Test results: patent publication US6683096B2, “Indolylpiperidine derivatives as antihistaminic and antiallergic agents” (Almirall Prodesfarma, S.A., priority 1999, dated 2004)
Like-named read-outs stand apart in the source and are kept apart here.

Experiments:
[1] = target: T1, histamine-H1 receptors (Cavia porcellus, UniProt P31389); assay: Histamine-H1 receptor binding assay ([3H]-mepyramine, guinea pig cerebellum membranes)
T1 construct: performed in guinea pig cerebellum membranes; from tissue; host or cells: guinea pig cerebellum membranes
Description: (1) Histamine-H1 receptor binding assay
Briefly, the membrane suspensions (160 μg/ml) were incubated at 30° C. with 0.7 nM [^3H]- mepyramine and different concentrations of the test compounds in a final volume of 250 μl. Binding reactions were terminated by filtration after 30 min of incubation and the bound radioactivity was determined. The specific binding was measured in the presence of 10 μM of promethazine. The affinity of each test compound to the receptor was determined by using at least six different concentrations run in duplicate. IC50 values were obtained by non-linear regression by use of SAS on a DEC AXP computer.

[2] = test system: histamine-induced skin vascular permeability in rats; assay: Histamine-induced skin vascular permeability in rats; type: in vivo; conditions: Rattus norvegicus, po; 3 mg/Kg orally, 4 hours after administration, male Wistar rats; read-out: inhibition of the histamine-induced wheal
Description: (2) Histamine-induced skin vascular permeability in rats
Male Wistar rats (180-210 g) were treated orally with the test compound or vehicle. One, 4, 8 and 24 hours later, the rats were lightly anaesthetized with ether. The cutaneous reaction was induced by two intradermal injections of 50 μl of histamine (100 μg/ml) onto the back, followed by a intravenous injection of 3 ml/kg of Evan's Blue (5 mg/ml), both dissolved in saline. Sixty min later, the rats were killed by cervical dislocation and the back skin dissected free. The diameter (in millimeters) of the wheal was measured in two directions and the area was calculated.

[3] = guinea pig cerebellum membranes, 0.7 nM [3H]-mepyramine, read-out: BINDING TO RECEPTOR H1 ( IC50 nM )

T1 sequence (P31389 whole entry): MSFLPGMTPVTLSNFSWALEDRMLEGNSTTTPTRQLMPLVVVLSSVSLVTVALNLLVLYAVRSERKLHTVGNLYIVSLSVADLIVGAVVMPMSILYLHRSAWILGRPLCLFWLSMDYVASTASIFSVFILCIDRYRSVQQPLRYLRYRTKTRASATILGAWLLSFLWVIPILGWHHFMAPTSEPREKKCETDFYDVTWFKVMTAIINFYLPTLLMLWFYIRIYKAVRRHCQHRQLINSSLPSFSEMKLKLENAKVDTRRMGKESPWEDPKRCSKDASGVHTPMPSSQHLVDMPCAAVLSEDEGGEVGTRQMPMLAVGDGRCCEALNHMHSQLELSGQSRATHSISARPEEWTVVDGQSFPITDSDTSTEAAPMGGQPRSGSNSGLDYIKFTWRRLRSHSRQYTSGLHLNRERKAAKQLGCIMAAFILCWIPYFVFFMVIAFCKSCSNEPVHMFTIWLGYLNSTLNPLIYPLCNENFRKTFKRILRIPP

IC50 [1, 3] [nM] | melting point [°C] | Structure (SMILES) | inhibition in vivo at 3 mg/kg [2] [%] | IC50 [1] [nM]
83 | 139 to 140 | COCCn1cc(C2CCN(CCOc3ccccc3C(=O)O)CC2)c2ccccc21 [Example 140, 2-(2-{4-[1-(2-methoxy-ethyl)-1H-indol-3-yl]-piperidin-1-yl}-ethoxy)-benzoic acid] | > 50 | –
97 | 123 to 125 | C=CCn1cc(C2CCN(CCOc3ccccc3C(=O)O)CC2)c2ccccc21 [Example 141, 2-{2-[4-(1-allyl-1H-indol-3-yl)-piperidin-1-yl]-ethoxy}-benzoic acid] | > 50 | –
386 | 144 to 146 | CCOCCn1cc(C2CCN(CCOc3ccc(C)cc3C(=O)O)CC2)c2cc(OC)ccc21 [Example 142, 2-(2-{4-[1-(2-ethoxy-ethyl)-5-methoxy-1H-indol-3-yl]-piperidin-1-yl}-ethoxy)-5-methyl-benzoic acid] | > 50 | –
222 | – | CCOCCn1cc(C2CCN(CCOc3ccc(C)cc3C(=O)O)CC2)c2cccc(Br)c21 [Example 143, 2-(2-{4-[7-bromo-1-(2-ethoxy-ethyl)-1H-indol-3-yl]-piperidin-1-yl}-ethoxy)-5-methyl-benzoic acid] | – | –
116 | – | CCOCCn1cc(C2CCN(CCOc3ccc(C)cc3C(=O)O)CC2)c2cc(F)ccc21 [Example 145, 2-(2-{4-[1-(2-ethoxy-ethyl)-5-fluoro-1H-indol-3-yl]-piperidin-1-yl}-ethoxy)-5-methyl-benzoic acid] | – | –
127 | – | CCCCn1cc(C2CCN(CCOc3ccccc3C(=O)O)CC2)c2ccccc21 [Example 148, 2-{2-[4-(1-butyl-1H-indol-3-yl)-piperidin-1-yl]-ethoxy}-benzoic acid] | > 50 | –
142 | – | CCCCCCn1cc(C2CCN(CCOc3ccccc3C(=O)O)CC2)c2ccccc21 [Example 149, 2-{2-[4-(1-hexyl-1H-indol-3-yl)-piperidin-1-yl]-ethoxy}-benzoic acid] | > 50 | –
121 | 97 | O=C(O)c1ccccc1OCCN1CCC(c2cn(CC3CC3)c3cc(F)ccc23)CC1 [Example 150, 2-{2-[4-(1-cyclopropylmethyl-6-fluoro-1H-indol-3-yl)-piperidin-1-yl]-ethoxy}-benzoic acid] | > 50 | –
– | 230 | O=C(O)c1ccccc1OCCN1CCC(c2c[nH]c3ccccc23)CC1 [Example 151, 2-{2-[4-(1H-indol-3-yl)-piperidin-1-yl]-ethoxy}-benzoic acid] | – | –
245 | – | CCOCCn1cc(C2CCN(CCC(=O)O)CC2)c2ccccc21 [Example 153, 3-{4-[1-(2-ethoxy-ethyl)-1H-indol-3-yl]-piperidin-1-yl}-propionic acid] | – | –
– | 109 to 112 | CCOCCn1cc(C2CCN(CCOc3ccc(C)cc3C(=O)O)CC2)c2ccccc21 [Example 154, 2-(2-{4-[1-(2-ethoxy-ethyl)-1H-indol-3-yl]-piperidin-1-yl}-ethoxy)-5-methyl-benzoic acid] | – | –
140 | 145 to 147 | O=C(O)c1ccccc1OCCN1CCC(c2cn(CC3CC3)c3ccccc23)CC1 [Example 157, 2-{2-[4-(1-cyclopropylmethyl-1H-indol-3-yl)-piperidin-1-yl]-ethoxy}-benzoic acid] | > 50 | –
68 | 83 to 85 | O=C(O)Cc1ccc(OCCCN2CCC(c3cn(CC4CC4)c4ccccc34)CC2)cc1 [Example 159, (4-{3-[4-(1-cyclopropylmethyl-1H-indol-3-yl)-piperidin-1-yl]-propoxy}-phenyl)-acetic acid] | – | –

Second part, the compound before the results:

Structure (SMILES) | IC50 [1, 3] [nM] | melting point [°C] | inhibition in vivo at 3 mg/kg [2] [%] | IC50 [1] [nM]
O=C(O)COCCN1CCN(C(c2ccccc2)c2ccc(Cl)cc2)CC1 (stereo not drawn) [CETIRIZINE, reference compound] | 226 | – | – | –
O=C(O)c1ccccc1OCCN1CCC(c2cn(Cc3ccc(F)cc3)c3ccccc23)CC1 [Example 1, 2-(2-{4-[1-(4-fluoro-benzyl)-1H-indol-3-yl]-piperidin-1-yl}-ethoxy)-benzoic acid] | 310 | – | – | –
CCCCCn1cc(C2CCN(CCOc3ccccc3C(=O)O)CC2)c2ccccc21 [Example 2, 2-{2-[4-(1-pentyl-1H-indol-3-yl)-piperidin-1-yl]-ethoxy}-benzoic acid] | 57 | 113 | > 50 | –
CCOCCn1cc(C2CCN(CCCC(=O)O)CC2)c2ccccc21 [Example 3, 4-{4-[1-(2-ethoxy-ethyl)-1H-indol-3-yl]-piperidin-1-yl}-butyric acid] | 347 | – | – | –
CCOCCn1cc(C2CCN(CCOc3cccc(C(=O)O)c3)CC2)c2ccccc21 [Example 10] | 145 | – | – | –
CCCCCn1cc(C2CCN(CCCOc3ccccc3C(=O)O)CC2)c2ccccc21 [Example 15, 2-{3-[4-(1-pentyl-1H-indol-3-yl)-piperidin-1-yl]-propoxy}-benzoic acid] | 88 | – | – | –
CCOCCn1cc(C2CCN(CCCOc3cccc(C(=O)O)c3)CC2)c2ccccc21 [Example 19, 3-(3-{4-[1-(2-ethoxy-ethyl)-1H-indol-3-yl]-piperidin-1-yl}-propoxy)-benzoic acid] | 89 | – | – | –
CCOCCn1cc(C2CCN(CCc3ccc(C=CC(=O)O)cc3)CC2)c2ccccc21 [Example 32, 3-[4-(2-{4-[1-(2-ethoxy-ethyl)-1H-indol-3-yl]-piperidin-1-yl}-ethyl)-phenyl]-acrylic acid] | 59 | – | – | –
CCCCCn1cc(C2CCN(CCCC(O)c3ccc(C(C)(C)C(=O)O)cc3)CC2)c2ccccc21 (stereo not drawn) [Example 34, 2-(4-{1-hydroxy-4-[4-(1-pentyl-1H-indol-3-yl)-piperidin-1-yl]-butyl}-phenyl)-2-methyl-propionic acid] | 127 | – | – | –
CCCCCn1cc(C2CCN(CCOCC(=O)O)CC2)c2ccccc21 [Example 38, {2-[4-(1-pentyl-1H-indol-3-yl)-piperidin-1-yl]-ethoxy}-acetic acid] | – | – | – | 174
COCCOCCn1cc(C2CCN(Cc3ccc(C(=O)O)o3)CC2)c2ccccc21 [Example 40, 5-(4-{1-[2-(2-methoxy-ethoxy)-ethyl]-1H-indol-3-yl}-piperidin-1-yl-methyl)-furan-2-carboxylic acid] | 210 | 159 | – | –
CCCCCn1cc(C2CCN(Cc3ccc(C(=O)O)o3)CC2)c2ccccc21 [Example 41, 5-[4-(1-pentyl-1H-indol-3-yl)-piperidin-1-yl-methyl]-furan-2-carboxylic acid] | 111 | 163 to 165 | > 50 | –
O=C(O)c1cccc(CN2CCC(c3c[nH]c4ccccc34)CC2)c1 [Example 54, 3-[4-(1H-indol-3-yl)-piperidin-1-ylmethyl]-benzoic acid] | 106 | – | – | –
CCOCCn1cc(C2CCN(Cc3cccc(C(=O)O)c3)CC2)c2ccccc21 [Example 66, 3-{4-[1-(2-ethoxy-ethyl)-1H-indol-3-yl]-piperidin-1-ylmethyl}-benzoic acid] | 248 | – | – | –
CCOCCn1cc(C2CCN(CCOc3cccc(F)c3C(=O)O)CC2)c2cccc(Br)c21 [Example 85, 2-(2-{4-[7-bromo-1-(2-ethoxy-ethyl)-1H-indol-3-yl]-piperidin-1-yl}-ethoxy)-6-fluoro-benzoic acid] | 152 | – | – | –
CC(C)OCCn1cc(C2CCN(CCOc3ccccc3C(=O)O)CC2)c2ccccc21 [Example 108, 2-(2-{4-[1-(2-iso-propoxy-ethyl)-1H-indol-3-yl]-piperidin-1-yl}-ethoxy)-benzoic acid] | 275 | – | > 50 | –
C=CCOCCn1cc(C2CCN(CCOc3ccccc3C(=O)O)CC2)c2ccccc21 [Example 134, 2-(2-{4-[1-(2-allyloxy-ethyl)-1H-indol-3-yl]-piperidin-1-yl}-ethoxy)-benzoic acid] | 86 | – | – | –
CCOCCn1cc(C2CCN(CCOc3ccc(C(=O)O)cc3)CC2)c2ccccc21 [Example 137, 4-(2-{4-[1-(2-ethoxy-ethyl)-1H-indol-3-yl]piperidin-1-yl}-ethoxy)-benzoic acid] | 150 | – | – | –
CCOCCn1cc(C2CCN(CCOc3ccccc3C(=O)O)CC2)c2ccccc21 [Example 138, 2-(2-{4-[1-(2-ethoxy-ethyl)-1H-indol-3-yl]piperidin-1-yl}-ethoxy)-benzoic acid] | 86 | – | > 50 | –
CC(C)CCn1cc(C2CCN(CCOc3ccccc3C(=O)O)CC2)c2ccccc21 [Example 139, 2-(2-{4-[1-(3-methyl-butyl)-1H-indol-3-yl]-piperidin-1-yl}-ethoxy)-benzoic acid] | 205 | 150 to 151 | – | –
O=C(O)c1cccc(CN2CCC(c3cn(CC4CC4)c4ccccc34)CC2)c1 [Example 158, 3-[4-(1-cyclopropylmethyl-1H-indol-3-yl)-piperidin-1-ylmethyl]-benzoic acid] | 104 | 207 | > 50 | –
